Assay results: patent publication US8685695B2, “Method for producing a mixture of bacteriophages and the use thereof in the therapy of antibiotic-resistant staphylococci” (priority 2008, dated 2014)
Read-outs that look alike come from different tables or passages of the source.

What was measured:
[1] = system: S. aureus M.06.02.0071; experiment: Sensitivity of the strain to bacteriophages and antibiotics; format: cell-based, Staphylococcus aureus
[2] = system: S. aureus from tissue (M.06.02.0071, mouse pneumonia model); experiment: Nanocalorimetric measurement of metabolism, bacteria isolated from lung tissue; format: cell-based, Staphylococcus aureus; conditions: antibiotics 10 μg/ml, bacteriophages 4×10^9 PFU/ml
Method: (§1) Another sensitive method of examining the activity of micro-organisms is available in the form of nanocalorimetry. In this technique, metabolic action is measured by way of the heat it produces. The production of heat is measured from the voltage (in [p\/]) generated at thermocouples.
(§2) A detailed description of the measuring system used and the procedure can be found in: J. Lerchner et al., Thermochimica Acta 477, 2008, 48-53.
(§3) The concentration of the bacteriophages was 4×10^9 PFU/ml.

[3] = system: S. aureus M.06.02.0071; experiment: Nanocalorimetric measurement of metabolism; format: cell-based, Staphylococcus aureus; conditions: antibiotics 10 μg/ml; bacteriophages 4×10^9 PFU/ml
Method: as §1, §2, §3

[4] = system: S. aureus DSM 18421; experiment: Nanocalorimetric measurement of metabolism; format: cell-based, Staphylococcus aureus; conditions: antibiotics 10 μg/ml; bacteriophages 4×10^9 PFU/ml
Method: as §1, §2, §3

[5] = system: S. aureus M.06.02.0071 (USA300, MRSA, ST8); format: in vivo, mouse; conditions: for Percentage of surviving animals: antibiotics 2 × day
Method: A non-sensitive antibiotic (ciprofloxacin) and a sensitive antibiotic (vancomycin) were also used to allow a comparison to be made.
Four groups, each of 20 mice weighing approximately 25 g, were first subjected to immunosuppression to ensure that they would be adequately infected by S. aureus. The immunosuppression began with an application of cyclophosphamide 4 days before the bacterial infection. A further application of cyclophosphamide was carried out 1 day before, together with a once-only administration of cortisone. The immunosuppression with cyclophosphamide was repeated at intervals of 3 days.
The strain of S. aureus which was selected for the infection was resistant to this antibiotic.
The strain of S. aureus which was selected for the infection (internal designation M.06.02.0071) was an isolate which was supplied by the Robert-Koch-Institut of Wernigerode. This S. aureus is a member of the group of USA300 (MRSA, ST8) strains which are considered particularly virulent due to the presence of the virulence factor PVL.
On day 0, the mice had 1.5×10^7 CFU of the S. aureus applied to them intratrachially under anaesthetic.
The medicament, which was applied intratrachially under anaesthetic, was a one-off dose of 5.5×10^10 PFU of a 1:1 mixture of the bacteriophages DSM 18722 and DSM 18723 either one hour before the infection or one hour after the infection. One group, beginning 1 day before the infection, was also treated subcutaneously with vancomycin twice a day.
The main parameter was the determination of lethality as a function of the time elapsed since the start of the test. The length of the test was 14 days.

[6] = system: S. aureus DSM 18421; experiment: Sensitivity of the strain to bacteriophages and antibiotics; format: cell-based, Staphylococcus aureus
[7] = system: Staphylococcus aureus DSM 18421; experiment: Lysis of Staphylococcus aureus DSM 18421 in saliva (viable cell count); format: cell-based
Method: • Morning saliva (before breakfast and before cleaning of teeth) was collected from different individual persons. • The saliva samples were centrifuged for 5 min at room temperature at 12,000 rpm. • The supernatant liquid was removed and sterile filtered (0.8 μm pre-filter, then a 0.22 μm filter). • The samples of saliva were mixed 1:1 in a sterile vessel. 7.2 Incubation of the Preparations for Lysis • To the saliva prepared as described above were also added: • approx. 1×10^4 CFU/ml of DSM 18421 (from a suitable dilution of the overnight culture), • approx. 1×10^8 PFU/ml of phages (Simba Top, 1:1 mixture of purified M and K phages). • Used in addition were serralysin (100 U/ml), dornase (25 μml) or benzonase (25 μml) or a combination of these enzymes. • The enzymes were added right at the start of the incubation. • A control incubation was carried out at the same time in which the phages were replaced by adding the same volume of storage buffers (for composition see below). • The total volume of all the preparations was 2 ml. • The incubation was carried out in 10 ml glass penicillin bottles at 37° C. and 200 rpm (in a shaker incubator) 7.3 Determination of the Viable Cell Count (CFU/ml) After 6 h • After an incubation period of 6 h, an aliquot was taken from each preparation and a factor-of-ten dilution series prepared from it. • 2-5 suitable dilutions were selected from each dilution series and 2×100 μl (twin samples) of each were plated (with a Drigalski spatula). • The plating was performed onto LB agar in the case of the phage-free preparations and onto LB agar containing 0.01% citrate in the case of the preparations containing phages. • After at least 16 h of incubation at 37° C., the colony forming units (CFU's) were counted on each plate • Only plates which had at least 20 CFU's were used to calculate the FIGURE for CFU/ml • A representation in graph form was prepared by plotting CFU/ml (in logarithmic form) against the period of incubation.
Period of incubation: 6 hours Medium: saliva (human; mixture)

[8] = Table 10, 6 h, 37° C., phages approx. 1×10^8 PFU/ml, serralysin 100 U/ml

Molecule	Sensitivity of the strain, in words [1]	% relative to control [2]	Difference voltage [2]	% relative to control [3]	Difference voltage [3]	% relative to control [4]	Difference voltage [4]	Mortality in the acute phase, in words ([5]; bacteriophages one-off before the infection, vancomycin prior and thereafter continuous, compared with the placebo)	Sensitivity of the strain, in words [6]	Percentage of surviving animals ([5]; 0 hours after infection)	Percentage of surviving animals ([5]; 5 hours after infection)	Percentage of surviving animals ([5]; 19 hours after infection)	Percentage of surviving animals ([5]; 23 hours after infection)	Percentage of surviving animals ([5]; 29 hours after infection)	Percentage of surviving animals ([5]; 43 hours after infection)	Percentage of surviving animals ([5]; 47 hours after infection)	Effect on the colony count of S. aureus in saliva, in words ([7]; 6 h)	Colony count, % of control without phages [7, 8]	Viable cell count [7, 8]
CN[C@H](CC(C)C)C(=O)N[C@H]1C(=O)N[C@@H](CC(N)=O)C(=O)N[C@H]2C(=O)N[C@H]3C(=O)N[C@H](C(=O)N[C@H](C(=O)O)c4cc(O)cc(O)c4-c4cc3ccc4O)[C@H](O)c3ccc(c(Cl)c3)Oc3cc2cc(c3O[C@@H]2O[C@H](CO)[C@@H](O)[C@H](O)[C@H]2O[C@H]2C[C@](C)(N)[C@H](O)[C@H](C)O2)Oc2ccc(cc2Cl)[C@H]1O [Vancomycin, vancomycin]	sensitive	61%	−0.438 μV	41%	−4.132 μV	36%	−3.681 μV	reduction in mortality	sensitive										
O=C(O)c1cn(C2CC2)c2cc(N3CCNCC3)c(F)cc2c1=O [Ciprofloxacin, ciprofloxacin]	resistant									100%	100%	60%	45%	35%	10%	10%			
serralysin																	did not cause a reduction in the colony count	130%	1.14 × 10^6 CFU/ml
